Source: PubChem BioAssay AID1918953 (Molecular Pharmacology Branch, DTP, NCI, 2023)
Several values for one entry are separate records, joined by “and”; a condition that tells them apart may be missing. Equal values may be shown once. Blank lines part the entries; values can stand above or below the molecule they belong to.

System: MDA-MB-231 complex spheroid viability
Experiment: Anticancer human tumor MDA-MB-231/ATCC cell line growth inhibition;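 further: drug exposure lasted 7 days starting on day 3 of spheroid growth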
Settings: for viability, T/C: stronger effect = lower value
Procedure, shortened: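 Multicellular complex spheroids of tumor cells with human endothelial cells (HUVEC) and mesenchymal stem cells; the LSD1 inhibitor iadademstat was combined with standard-of-care or investigational agents. Top concentration at or near clinical Cmax, half-log dilutions; final DMSO ≤0.25%.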

[1] = curve of first compound, second compound 0.1 µM
[2] = curve of first compound, second compound 0.316 µM
[3] = curve of first compound, second compound 1 µM
[4] = curve of first compound, second compound 3.16 µM
[5] = curve of first compound, second compound 10 µM
[6] = second compound 0.1 µM, first compound 0.00949 µM
[7] = second compound 0.1 µM, first compound 0.03 µM
[8] = second compound 0.1 µM, first compound 0.0949 µM
[9] = second compound 0.1 µM, first compound 0.3 µM
[10] = second compound 0.1 µM, first compound 0.949 µM
[11] = second compound 0.1 µM, first compound 3 µM
[12] = second compound 0.316 µM, first compound 0.00949 µM
[13] = second compound 0.316 µM, first compound 0.03 µM
[14] = second compound 0.316 µM, first compound 0.0949 µM
[15] = second compound 0.316 µM, first compound 0.3 µM
[16] = second compound 0.316 µM, first compound 0.949 µM
[17] = second compound 0.316 µM, first compound 3 µM
[18] = second compound 1 µM, first compound 0.00949 µM
[19] = second compound 1 µM, first compound 0.03 µM
[20] = second compound 1 µM, first compound 0.0949 µM
[21] = second compound 1 µM, first compound 0.3 µM
[22] = second compound 1 µM, first compound 0.949 µM
[23] = second compound 1 µM, first compound 3 µM
[24] = second compound 3.16 µM, first compound 0.00949 µM
[25] = second compound 3.16 µM, first compound 0.03 µM
[26] = second compound 3.16 µM, first compound 0.0949 µM
[27] = second compound 3.16 µM, first compound 0.3 µM
[28] = second compound 3.16 µM, first compound 0.949 µM
[29] = second compound 3.16 µM, first compound 3 µM
[30] = second compound 10 µM, first compound 0.00949 µM
[31] = second compound 10 µM, first compound 0.03 µM
[32] = second compound 10 µM, first compound 0.0949 µM
[33] = second compound 10 µM, first compound 0.3 µM
[34] = second compound 10 µM, first compound 0.949 µM
[35] = second compound 10 µM, first compound 3 µM
[36] = second compound 0.1 µM, first compound 0.00316 µM
[37] = second compound 0.1 µM, first compound 0.01 µM
[38] = second compound 0.1 µM, first compound 0.0316 µM
[39] = second compound 0.1 µM, first compound 0.1 µM
[40] = second compound 0.316 µM, first compound 0.00316 µM
[41] = second compound 0.316 µM, first compound 0.01 µM
[42] = second compound 0.316 µM, first compound 0.0316 µM
[43] = second compound 0.316 µM, first compound 0.1 µM
[44] = second compound 1 µM, first compound 0.00316 µM
[45] = second compound 1 µM, first compound 0.01 µM
[46] = second compound 1 µM, first compound 0.0316 µM
[47] = second compound 1 µM, first compound 0.1 µM
[48] = second compound 3.16 µM, first compound 0.00316 µM
[49] = second compound 3.16 µM, first compound 0.01 µM
[50] = second compound 3.16 µM, first compound 0.0316 µM
[51] = second compound 3.16 µM, first compound 0.1 µM
[52] = second compound 10 µM, first compound 0.00316 µM
[53] = second compound 10 µM, first compound 0.01 µM
[54] = second compound 10 µM, first compound 0.0316 µM
[55] = second compound 10 µM, first compound 0.1 µM
[56] = second compound 0.1 µM, first compound 0.316 µM
[57] = second compound 0.1 µM, first compound 1 µM
[58] = second compound 0.316 µM, first compound 0.316 µM
[59] = second compound 0.316 µM, first compound 1 µM
[60] = second compound 1 µM, first compound 0.316 µM
[61] = second compound 1 µM, first compound 1 µM
[62] = second compound 3.16 µM, first compound 0.316 µM
[63] = second compound 3.16 µM, first compound 1 µM
[64] = second compound 10 µM, first compound 0.316 µM
[65] = second compound 10 µM, first compound 1 µM

Compound: NS(=O)(=O)OCC1CC(n2ccc3c(NC4CCc5ccccc54)ncnc32)CC1O (configuration not stated) + NC1CCC(NC2CC2c2ccccc2)CC1
IC50 [1]: 285 nM
IC50 [2]: 280 nM
IC50 [3]: 244 nM
IC50 [4]: 169 nM
IC50 [5]: 48.6 nM
viability, T/C [6]: 136%
viability, T/C [7]: 117%
viability, T/C [8]: 78.1%
viability, T/C [9]: 46.6%
viability, T/C [10]: 42.7%
viability, T/C [11]: 39.7%
viability, T/C [12]: 135%
viability, T/C [13]: 116%
viability, T/C [14]: 77%
viability, T/C [15]: 47.6%
viability, T/C [16]: 40.3%
viability, T/C [17]: 38.7%
viability, T/C [18]: 124%
viability, T/C [19]: 107%
viability, T/C [20]: 73.4%
viability, T/C [21]: 42.2%
viability, T/C [22]: 40.6%
viability, T/C [23]: 36.8%
viability, T/C [24]: 100%
viability, T/C [25]: 87.2%
viability, T/C [26]: 59.7%
viability, T/C [27]: 40.2%
viability, T/C [28]: 33.4%
viability, T/C [29]: 31.3%
viability, T/C [30]: 69.7%
viability, T/C [31]: 56.8%
viability, T/C [32]: 40.4%
viability, T/C [33]: 32.7%
viability, T/C [34]: 28.1%
viability, T/C [35]: 28.8%

Compound: CC(C)CC(NC(=O)C(Cc1ccccc1)NC(=O)c1cnccn1)B(O)O (configuration not stated) + NC1CC1c1ccc(-c2cccc(O)c2)cc1
IC50 [1]: < 0.316 nM
IC50 [2]: < 0.316 nM
IC50 [3]: < 0.316 nM
IC50 [4]: < 0.316 nM
IC50 [5]: < 0.316 nM
viability, T/C (second compound 0.1 µM, first compound 0.000316 µM): 29.9%
viability, T/C (second compound 0.1 µM, first compound 0.001 µM): 1.88%
viability, T/C [36]: 0.68%
viability, T/C [37]: 0.5%
viability, T/C [38]: 0.85%
viability, T/C [39]: 1.08%
viability, T/C (second compound 0.316 µM, first compound 0.000316 µM): 31.8%
viability, T/C (second compound 0.316 µM, first compound 0.001 µM): 0.28%
viability, T/C [40]: 0.07%
viability, T/C [41]: 0.06%
viability, T/C [42]: 0.07%
viability, T/C [43]: 0.14%
viability, T/C (second compound 1 µM, first compound 0.000316 µM): 28.9%
viability, T/C (second compound 1 µM, first compound 0.001 µM): 0.45%
viability, T/C [44]: 0.11%
viability, T/C [45]: 0.08%
viability, T/C [46]: 0.09%
viability, T/C [47]: 0.15%
viability, T/C (second compound 3.16 µM, first compound 0.000316 µM): 25.6%
viability, T/C (second compound 3.16 µM, first compound 0.001 µM): 0.41%
viability, T/C [48]: 0.12%
viability, T/C [49]: 0.15%
viability, T/C [50]: 0.07%
viability, T/C [51]: 1.91%
viability, T/C (second compound 10 µM, first compound 0.000316 µM): 18.3%
viability, T/C (second compound 10 µM, first compound 0.001 µM): 0.24%
viability, T/C [52]: 0.13%
viability, T/C [53]: 0.11%
viability, T/C [54]: 0.12%
viability, T/C [55]: 1.1%

Compound: O=C(C=Cc1cccc(S(=O)(=O)Nc2ccccc2)c1)NO + NC1CCC(NC2CC2c2ccccc2)CC1
IC50 [1]: 113 nM
IC50 [2]: 106 nM
IC50 [3]: 66.2 nM
IC50 [4]: 21.9 nM
IC50 [5]: < 9.49 nM
viability, T/C [6]: 90.7%
viability, T/C [7]: 75.7%
viability, T/C [8]: 53%
viability, T/C [9]: 30.5%
viability, T/C [10]: 13.7%
viability, T/C [11]: 0.59%
viability, T/C [12]: 86.3%
viability, T/C [13]: 69.6%
viability, T/C [14]: 53.5%
viability, T/C [15]: 30.8%
viability, T/C [16]: 14.1%
viability, T/C [17]: 1.38%
viability, T/C [18]: 79.1%
viability, T/C [19]: 61.8%
viability, T/C [20]: 43.6%
viability, T/C [21]: 30.3%
viability, T/C [22]: 11.3%
viability, T/C [23]: 0.68%
viability, T/C [24]: 61.4%
viability, T/C [25]: 45.3%
viability, T/C [26]: 31%
viability, T/C [27]: 20.8%
viability, T/C [28]: 6.19%
viability, T/C [29]: 0.34%
viability, T/C [30]: 39.8%
viability, T/C [31]: 29.8%
viability, T/C [32]: 17.9%
viability, T/C [33]: 13.9%
viability, T/C [34]: 3.39%
viability, T/C [35]: 0.33%

Compound: CC1COCCN1c1cc(C2(S(C)(=N)=O)CC2)nc(-c2ccnc3[nH]ccc23)n1 (configuration not stated) + NC1CC1c1ccc(-c2cccc(O)c2)cc1
IC50 [1]: 952 nM
IC50 [2]: 749 nM
IC50 [3]: 537 nM
IC50 [4]: 832 nM
IC50 [5]: 490 nM
viability, T/C [38]: 90.7%
viability, T/C [39]: 90.3%
viability, T/C [56]: 87%
viability, T/C [57]: 47.6%
viability, T/C (second compound 0.1 µM, first compound 3.16 µM): 31.5%
viability, T/C (second compound 0.1 µM, first compound 10 µM): 22.4%
viability, T/C [42]: 71.7%
viability, T/C [43]: 74.8%
viability, T/C [58]: 74.5%
viability, T/C [59]: 42%
viability, T/C (second compound 0.316 µM, first compound 3.16 µM): 23.3%
viability, T/C (second compound 0.316 µM, first compound 10 µM): 20.3%
viability, T/C [46]: 53.6%
viability, T/C [47]: 68.1%
viability, T/C [60]: 57.4%
viability, T/C [61]: 40.4%
viability, T/C (second compound 1 µM, first compound 3.16 µM): 23.9%
viability, T/C (second compound 1 µM, first compound 10 µM): 20.9%
viability, T/C [50]: 72.4%
viability, T/C [51]: 80.1%
viability, T/C [62]: 72.7%
viability, T/C [63]: 45.6%
viability, T/C (second compound 3.16 µM, first compound 3.16 µM): 23%
viability, T/C (second compound 3.16 µM, first compound 10 µM): 21.1%
viability, T/C [54]: 57.1%
viability, T/C [55]: 59.7%
viability, T/C [64]: 56.4%
viability, T/C [65]: 40.1%
viability, T/C (second compound 10 µM, first compound 3.16 µM): 23.6%
viability, T/C (second compound 10 µM, first compound 10 µM): 18.7%

IC50 (curve of compound): 230 nM and 79.9 nM
Compound: NS(=O)(=O)OCC1CC(n2ccc3c(NC4CCc5ccccc54)ncnc32)CC1O (configuration not stated)
viability, T/C (compound 0.00949 µM): 140% and 117%
viability, T/C (compound 0.03 µM): 119% and 91%
viability, T/C (compound 0.0949 µM): 71.6% and 43.9%
viability, T/C (compound 0.3 µM): 43.7% and 22.5%
viability, T/C (compound 0.949 µM): 37.5% and 26.5%
viability, T/C (compound 3 µM): 34.5% and 26.1%

Compound: O=C(C=Cn1cnc(-c2cc(C(F)(F)F)cc(C(F)(F)F)c2)n1)NNc1cnccn1 + NC1CCC(NC2CC2c2ccccc2)CC1
IC50 [1]: 5.44 nM
IC50 [2]: 4.93 nM
IC50 [3]: 6.56 nM
IC50 [4]: 6.04 nM
IC50 [5]: < 3.16 nM
viability, T/C [36]: 61.7%
viability, T/C [37]: 37%
viability, T/C [38]: 14.9%
viability, T/C [39]: 10.4%
viability, T/C [56]: 9%
viability, T/C [57]: 6.32%
viability, T/C [40]: 58.9%
viability, T/C [41]: 36.2%
viability, T/C [42]: 15%
viability, T/C [43]: 11.4%
viability, T/C [58]: 7.56%
viability, T/C [59]: 5.07%
viability, T/C [44]: 64.6%
viability, T/C [45]: 41.7%
viability, T/C [46]: 15.4%
viability, T/C [47]: 11.4%
viability, T/C [60]: 8.75%
viability, T/C [61]: 6.54%
viability, T/C [48]: 56%
viability, T/C [49]: 45.4%
viability, T/C [50]: 13.9%
viability, T/C [51]: 11.2%
viability, T/C [62]: 8.03%
viability, T/C [63]: 6.06%
viability, T/C [52]: 49.2%
viability, T/C [53]: 34.5%
viability, T/C [54]: 14%
viability, T/C [55]: 9.12%
viability, T/C [64]: 7.43%
viability, T/C [65]: 5.83%
